Results: ChEMBL document CHEMBL3286294, “Buthionine sulfoximine diverts the melanogenesis pathway toward the production of more soluble and degradable pigments” (Bioorg Med Chem Lett, 2014)
The source made the active and inactive calls.

Tests used:
[1] = target: T1, Tyrosinase (Agaricus bisporus) (UniProt O42713); assay: Induction of eumelanogenesis assessed as mushroom tyrosinase-mediated simulation of eumelanogenesis by measuring oxidation of L-DOPA at 4.5 to 184.4 mM after 48 hrs by Vis-spectrophotometer analysis in absence of glutathione
T1 sequence (whole entry): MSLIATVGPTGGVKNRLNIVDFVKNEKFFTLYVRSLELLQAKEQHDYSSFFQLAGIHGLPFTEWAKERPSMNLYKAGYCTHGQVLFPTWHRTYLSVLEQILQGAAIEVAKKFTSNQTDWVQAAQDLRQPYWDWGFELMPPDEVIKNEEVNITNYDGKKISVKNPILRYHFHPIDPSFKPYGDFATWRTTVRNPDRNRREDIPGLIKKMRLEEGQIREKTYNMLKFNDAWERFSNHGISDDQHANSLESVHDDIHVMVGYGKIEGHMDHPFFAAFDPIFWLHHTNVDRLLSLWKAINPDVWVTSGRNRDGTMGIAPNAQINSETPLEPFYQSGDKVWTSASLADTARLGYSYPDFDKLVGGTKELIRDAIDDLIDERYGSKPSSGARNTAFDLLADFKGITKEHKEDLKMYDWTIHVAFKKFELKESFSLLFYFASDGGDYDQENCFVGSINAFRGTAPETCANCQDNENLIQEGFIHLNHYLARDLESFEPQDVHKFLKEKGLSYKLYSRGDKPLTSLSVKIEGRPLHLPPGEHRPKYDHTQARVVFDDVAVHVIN

[2] = target: T1, Tyrosinase (Agaricus bisporus); assay: Induction of eumelanogenesis assessed as mushroom tyrosinase-mediated simulation of eumelanogenesis by measuring oxidation of L-DOPA at 4.5 to 184.4 mM after 48 hrs by Vis-spectrophotometer analysis in absence of glutathione and presence of H2O2
[3] = target: T1, Tyrosinase (Agaricus bisporus); assay: Induction of pheomelanogenesis assessed as mushroom tyrosinase-mediated simulation of pheomelanogenesis by measuring oxidation of L-DOPA at 4.5 to 184.4 mM after 48 hrs by Vis-spectrophotometer analysis in presence of 0.65 to 3.2 mM of glutathione
[4] = target: T1, Tyrosinase (Agaricus bisporus); assay: Induction of pheomelanogenesis assessed as mushroom tyrosinase-mediated simulation of pheomelanogenesis by measuring oxidation of L-DOPA at 4.5 to 184.4 mM after 48 hrs by Vis-spectrophotometer analysis in presence of 0.65 to 3.2 mM of glutathione and H2O2
[5] = target: T1, Tyrosinase (Agaricus bisporus); assay: Inhibition of mushroom tyrosinase-mediated simulation of pheomelanogenesis assessed as oxidation of L-DOPA at 4.5 to 184.4 mM after 48 hrs by Vis-spectrophotometer analysis in presence of 16.3 to 81.3 mM of glutathione

CCCCS(=N)(=O)CCC(N)C(=O)O (racemic)
active: Activity [1] | Activity [2] | Activity [3] | Activity [4] | inhibition [5]
